# Tests used:
# aFGF = aFGF (Homo sapiens, UniProt P05230); assay: Biacore biosensor: inhibition of aFGF binding to immobilised heparin and heparan sulfate; settings: inhibitor 0.034 μM, aFGF 0.025 μM; for Inhibition of binding of aFGF (HS): immobilised heparan sulfate; for Inhibition of binding of aFGF (Hep): immobilised heparin
# Summary of the method: (§1)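 Biotinylated heparin (1 μg/ml) or heparan sulfate was captured on neutravidin-coupled CM5 biosensor chips. Test compound and growth factor were preincubated 2 to 5 min, then growth-factor binding to the immobilised glycosaminoglycan was monitored for about 5 min; values are IC50 (μM) or % inhibition of binding.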
# IL-8 = target: T1, IL-8 (Homo sapiens, UniProt P10145); assay: Biacore biosensor: inhibition of IL-8 binding to immobilised heparin and heparan sulfate; settings: inhibitor 1.0 μM, IL-8 0.068 μM; for Inhibition of binding of IL-8 (HS): immobilised heparan sulfate; for Inhibition of binding of IL-8 (Hep): immobilised heparin
# T1 sequence (P10145 21-99): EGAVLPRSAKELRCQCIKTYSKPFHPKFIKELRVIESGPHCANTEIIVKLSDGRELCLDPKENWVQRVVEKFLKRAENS
# Summary of the method: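 Biacore 2000 with neutravidin-coupled CM5 chips capturing biotinylated heparin (1 μg/ml) or heparan sulfate. Compound and IL-8 preincubated 2 to 5 minutes before injection; binding to the immobilised glycosaminoglycan monitored for about 5 minutes.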
# rat aorta fragments = assay: In vitro angiogenesis inhibition assay; assay type: cell-based; settings: inhibitor 100 μg/ml; means of 4 culture wells per experiment; control 90; * significant, ** highly significant inhibition
# Method: The ability of linked cyclitol compounds to inhibit angiogenesis in vitro was conducted using the assay essentially as described in the present applicant's International Patent Application No. PCT/AU95/00105 (Publication No. WO 95/23968), the entire content of which is incorporated herein by cross reference. The only changes to the procedure described in PCT/AU95/00105 were that the assays were conducted using rat aorta fragments rather than human placental vessel fragments.
# All potential inhibitors were tested at 100 μg/ml with PI-88 also being tested at 10 μg/ml. The tabulated data represent means of 4 culture wells for each experiment. Significant inhibition of angiogenesis is indicated with a single asterisk while double asterisks denote highly significant inhibition.
# The compounds were also tested at the same purity as in Example 15 save that the second entries for 4b and 4j relate to data obtained with higher purity compounds than the compounds used for the first data entries of each.
# [1] = target: T2, human platelet heparanase (Homo sapiens, UniProt Q9Y251); assay: Heparanase inhibition, 3H-radiolabelled HS cleavage assay; assay type: biochemical; settings: for Relative inhibition (%): based on a comparison with heparin with 100% inhibition at 30 μg/ml; for EC50: heparanase inhibition
# T2 construct: 10 ng of purified human platelet heparanase; from tissue; host or cells: human platelets
# T2 sequence (Q9Y251 158-543 limits assumed): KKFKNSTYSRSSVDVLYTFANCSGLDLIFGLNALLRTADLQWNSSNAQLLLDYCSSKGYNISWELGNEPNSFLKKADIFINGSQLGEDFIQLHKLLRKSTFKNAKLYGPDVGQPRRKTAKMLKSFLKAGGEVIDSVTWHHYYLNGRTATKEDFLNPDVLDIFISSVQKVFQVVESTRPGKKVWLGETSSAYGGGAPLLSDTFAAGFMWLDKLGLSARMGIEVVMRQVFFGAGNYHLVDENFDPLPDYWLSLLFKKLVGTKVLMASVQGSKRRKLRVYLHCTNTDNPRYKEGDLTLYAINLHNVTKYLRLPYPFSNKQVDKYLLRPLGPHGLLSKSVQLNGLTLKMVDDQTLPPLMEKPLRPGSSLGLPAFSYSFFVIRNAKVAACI
# T2 sequence (Q9Y251 36-109 limits assumed): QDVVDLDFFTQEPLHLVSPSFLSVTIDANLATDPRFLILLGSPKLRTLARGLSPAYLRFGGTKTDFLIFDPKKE
# Summary of the method: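 Purified human platelet heparanase (10 ng) with ^3H-labelled porcine mucosal HS […] in 50 mM sodium acetate pH 5.0 plus BSA, 30 min; stopped by freezing. Products separated from substrate on histidine-rich glycoprotein–sepharose minicolumns; inhibition expressed relative to heparin at 30 μg/ml taken as 100%.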
# VEGF = target: T3, VEGF (Homo sapiens, UniProt P15692); assay: Biacore biosensor: inhibition of VEGF binding to immobilised heparin and heparan sulfate; settings: inhibitor 0.034 μM, VEGF 0.025 μM; for Inhibition of binding of VEGF (HS): immobilised heparan sulfate; for Inhibition of binding of VEGF (Hep): immobilised heparin
# T3 sequence (P15692 27-191 isoform P15692-4): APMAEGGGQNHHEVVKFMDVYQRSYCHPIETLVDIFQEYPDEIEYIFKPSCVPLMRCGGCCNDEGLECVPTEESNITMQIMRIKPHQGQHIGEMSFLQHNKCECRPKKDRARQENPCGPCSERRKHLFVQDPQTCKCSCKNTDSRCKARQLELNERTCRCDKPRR
# Summary of the method: as §1
# [2] = target: T4, human leukocyte Cathepsin G (Homo sapiens, UniProt P08311); assay: Cathepsin G inhibition, fluorogenic substrate, 96 well assay; assay type: biochemical; settings: human leukocyte cathepsin G 100 ng, 37° C., 60 min, pH 6.6
# T4 construct: human leukocyte Cathepsin G (100 ng protein); from tissue; host or cells: human leukocytes
# T4 sequence (P08311 21-244): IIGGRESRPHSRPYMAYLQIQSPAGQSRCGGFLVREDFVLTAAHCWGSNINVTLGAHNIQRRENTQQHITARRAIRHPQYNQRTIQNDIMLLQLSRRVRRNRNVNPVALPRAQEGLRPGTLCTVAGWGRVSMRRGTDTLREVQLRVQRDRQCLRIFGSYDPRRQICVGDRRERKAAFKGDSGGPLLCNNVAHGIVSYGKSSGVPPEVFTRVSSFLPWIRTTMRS
# Summary of the method: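 Inhibitor mixed with fluorogenic substrate MeOSuc-ala-ala-pro-phe-AMAC and human leukocyte Cathepsin G (100 ng) in 50 mM NaOAc pH 6.6, 50 mM NaCl, 0.1% Brij 35; 60 min at 37° C. Stopped with 250 mM acetic acid; fluorescence ex 360/em 460 nm. Value is concentration giving 50% inhibition.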
# bFGF = bFGF (Homo sapiens, UniProt P09038); assay: Biacore biosensor: inhibition of bFGF binding to immobilised heparin and heparan sulfate; settings: inhibitor 0.034 μM, bFGF 0.034 μM; for Inhibition of binding of bFGF (HS): immobilised heparan sulfate; for Inhibition of binding of bFGF (Hep): immobilised heparin
# bFGF, sequence (P09038 134-288 limits assumed, species assumed): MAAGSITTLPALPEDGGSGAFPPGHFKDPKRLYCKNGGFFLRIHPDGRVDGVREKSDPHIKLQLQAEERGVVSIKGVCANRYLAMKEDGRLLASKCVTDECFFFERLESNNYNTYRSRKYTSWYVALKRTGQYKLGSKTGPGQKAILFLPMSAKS
# Summary of the method: as §1
# aFGF, sequence (P05230 whole entry, species assumed): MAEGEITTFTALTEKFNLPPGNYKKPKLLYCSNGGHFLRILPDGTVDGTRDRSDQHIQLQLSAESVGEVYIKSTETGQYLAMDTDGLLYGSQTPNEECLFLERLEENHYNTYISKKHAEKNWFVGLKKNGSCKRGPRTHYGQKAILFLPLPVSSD
Structure (SMILES),Inhibition of binding of aFGF (HS) (aFGF),Inhibition of binding of aFGF (Hep) (aFGF),Inhibition of binding of IL-8 (HS) (IL-8),Inhibition of binding of IL-8 (Hep) (IL-8),% Growth (rat aorta fragments),Relative inhibition (%) [1],EC50 [1],Inhibition of binding of VEGF (HS) (VEGF),Inhibition of binding of VEGF (Hep) (VEGF),Amount for 50% inhibition [2],Inhibition of binding of bFGF (HS) (bFGF),Inhibition of binding of bFGF (Hep) (bFGF)
O=S(=O)(O)OC(CN([C@H]1[C@H](OS(=O)(=O)O)[C@H](OS(=O)(=O)O)[C@@H](OS(=O)(=O)O)[C@@H](OS(=O)(=O)O)[C@@H]1OS(=O)(=O)O)[C@H]1[C@H](OS(=O)(=O)O)[C@H](OS(=O)(=O)O)[C@@H](OS(=O)(=O)O)[C@@H](OS(=O)(=O)O)[C@@H]1OS(=O)(=O)O)CN([C@H]1[C@H](OS(=O)(=O)O)[C@H](OS(=O)(=O)O)[C@@H](OS(=O)(=O)O)[C@@H](OS(=O)(=O)O)[C@@H]1OS(=O)(=O)O)[C@H]1[C@H](OS(=O)(=O)O)[C@H](OS(=O)(=O)O)[C@@H](OS(=O)(=O)O)[C@@H](OS(=O)(=O)O)[C@@H]1OS(=O)(=O)O [Compound 5l],54% (HS),67% (Hep),42% (HS),52% (Hep),80%,85%,12 µg/mL,11% (HS),13% (Hep),0.53 µg/mL,43% (HS),33% (Hep)
O=S(=O)(O)OC1C=CC(N(Cc2ccc(CN(C3C=CC(OS(=O)(=O)O)C(OS(=O)(=O)O)C3OS(=O)(=O)O)C3C=CC(OS(=O)(=O)O)C(OS(=O)(=O)O)C3OS(=O)(=O)O)cc2)C2C=CC(OS(=O)(=O)O)C(OS(=O)(=O)O)C2OS(=O)(=O)O)C(OS(=O)(=O)O)C1OS(=O)(=O)O (stereo not drawn) [Compound 4e],63% (HS),66% (Hep),65% (HS),62% (Hep),55* %,70%,9 µg/mL,51% (HS),63% (Hep),0.30 µg/mL,61% (HS),49% (Hep)

# Source: patent US7173019B2, “Linked cyclitols and their polysulfated derivatives” (The Australian National University, priority 2001, dated 2007)
